Source: ChEMBL document CHEMBL1743201, “Casarett and Doull's Toxicology The Basic Science of Poisons, 7th edition” (2008)

How the values were obtained:
Assay type in all cases: ADME
Sulfotransferase 2B1 [1] = target: T1, Sulfotransferase 2B1 (Homo sapiens, UniProt O00204); experiment: Major substrate of human cytosolic sulfotransferase SULT2B1_v2
T1 sequence (O00204 whole entry): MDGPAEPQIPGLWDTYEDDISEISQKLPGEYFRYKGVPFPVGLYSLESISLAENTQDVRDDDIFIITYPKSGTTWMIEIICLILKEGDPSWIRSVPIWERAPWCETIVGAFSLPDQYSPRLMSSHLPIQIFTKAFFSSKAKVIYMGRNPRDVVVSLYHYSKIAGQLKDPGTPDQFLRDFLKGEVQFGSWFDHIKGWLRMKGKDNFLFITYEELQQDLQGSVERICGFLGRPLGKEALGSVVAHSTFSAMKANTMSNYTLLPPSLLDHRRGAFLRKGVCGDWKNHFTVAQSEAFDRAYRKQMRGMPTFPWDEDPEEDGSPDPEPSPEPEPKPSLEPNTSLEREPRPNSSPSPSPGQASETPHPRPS

[2] = target: Glutathione S-transferase omega-1 (Homo sapiens, UniProt P78417); experiment: Substrates for human cytosolic glutathione transferase GSTO1
[3] = target: Glutathione S-transferase omega-2 (Homo sapiens, UniProt Q9H4Y5); experiment: Substrates for human cytosolic glutathione transferase GSTO2
[4] = target: T2, Glutathione S-transferase kappa 1 (Homo sapiens, UniProt Q9Y2Q3); experiment: Substrates for human mitochondrial glutathione transferase GSTK1
T2 sequence (Q9Y2Q3 whole entry): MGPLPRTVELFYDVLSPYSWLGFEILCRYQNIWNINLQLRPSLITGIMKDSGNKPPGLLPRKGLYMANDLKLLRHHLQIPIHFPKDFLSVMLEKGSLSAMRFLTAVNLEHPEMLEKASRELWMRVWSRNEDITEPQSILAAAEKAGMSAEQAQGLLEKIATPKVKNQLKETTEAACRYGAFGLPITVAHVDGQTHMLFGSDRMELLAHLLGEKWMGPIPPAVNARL

[5] = target: Glutathione S-transferase Mu 4 (Homo sapiens, UniProt Q03013); experiment: Substrates for human cytosolic glutathione transferase GSTM4
[6] = target: Glutathione S-transferase Mu 5 (Homo sapiens, UniProt P46439); experiment: Substrates for human cytosolic glutathione transferase GSTM5
[7] = target: T3, Microsomal glutathione S-transferase 1 (Homo sapiens, UniProt P10620); experiment: Substrates for human microsomal glutathione transferase MGST1
T3 sequence (P10620 whole entry): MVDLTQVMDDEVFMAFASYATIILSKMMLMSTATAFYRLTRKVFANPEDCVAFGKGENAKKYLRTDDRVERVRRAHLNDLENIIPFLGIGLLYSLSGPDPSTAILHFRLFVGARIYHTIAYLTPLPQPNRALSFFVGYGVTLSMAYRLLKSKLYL

[8] = target: Microsomal glutathione S-transferase 2 (Homo sapiens, UniProt Q99735); experiment: Substrates for human microsomal glutathione transferase MGST2
[9] = target: Glutathione S-transferase 3, mitochondrial (Homo sapiens, UniProt O14880); experiment: Substrates for human microsomal glutathione transferase MGST3
Sulfotransferase 1E1 = target: T4, Sulfotransferase 1E1 (Homo sapiens, UniProt P49888); experiment: Major substrate of human cytosolic sulfotransferase SULT1E1
T4 sequence (P49888 whole entry): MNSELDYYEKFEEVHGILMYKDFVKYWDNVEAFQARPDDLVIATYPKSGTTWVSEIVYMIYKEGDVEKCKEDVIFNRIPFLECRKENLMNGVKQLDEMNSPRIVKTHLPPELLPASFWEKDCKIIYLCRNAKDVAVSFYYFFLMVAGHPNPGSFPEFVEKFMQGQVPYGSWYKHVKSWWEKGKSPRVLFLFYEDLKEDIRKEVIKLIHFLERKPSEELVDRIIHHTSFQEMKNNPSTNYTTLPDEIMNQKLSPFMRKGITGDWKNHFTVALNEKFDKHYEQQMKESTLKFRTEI

Sulfotransferase 2A1 = target: T5, Sulfotransferase 2A1 (Homo sapiens, UniProt Q06520); experiment: Major substrate of human cytosolic sulfotransferase SULT2A1
T5 sequence (Q06520 whole entry): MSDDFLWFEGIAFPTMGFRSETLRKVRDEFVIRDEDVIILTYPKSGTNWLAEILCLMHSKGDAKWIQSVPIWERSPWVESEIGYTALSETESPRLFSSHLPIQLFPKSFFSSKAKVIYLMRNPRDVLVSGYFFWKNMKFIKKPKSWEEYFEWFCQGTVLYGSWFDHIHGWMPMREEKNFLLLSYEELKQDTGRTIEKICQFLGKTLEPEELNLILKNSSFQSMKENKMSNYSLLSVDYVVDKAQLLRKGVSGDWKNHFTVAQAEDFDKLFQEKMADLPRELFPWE

Sulfotransferase 1A1 = Sulfotransferase 1A1 (Homo sapiens, UniProt P50225); experiment: Major substrate of human cytosolic sulfotransferase SULT1A1
[10] = target: T6, UDP-glucuronosyltransferase 1A3 (Homo sapiens, UniProt P35503); experiment: Substrate of human UDP-glucuronosyltransferase UGT1A3
T6 sequence (P35503 whole entry): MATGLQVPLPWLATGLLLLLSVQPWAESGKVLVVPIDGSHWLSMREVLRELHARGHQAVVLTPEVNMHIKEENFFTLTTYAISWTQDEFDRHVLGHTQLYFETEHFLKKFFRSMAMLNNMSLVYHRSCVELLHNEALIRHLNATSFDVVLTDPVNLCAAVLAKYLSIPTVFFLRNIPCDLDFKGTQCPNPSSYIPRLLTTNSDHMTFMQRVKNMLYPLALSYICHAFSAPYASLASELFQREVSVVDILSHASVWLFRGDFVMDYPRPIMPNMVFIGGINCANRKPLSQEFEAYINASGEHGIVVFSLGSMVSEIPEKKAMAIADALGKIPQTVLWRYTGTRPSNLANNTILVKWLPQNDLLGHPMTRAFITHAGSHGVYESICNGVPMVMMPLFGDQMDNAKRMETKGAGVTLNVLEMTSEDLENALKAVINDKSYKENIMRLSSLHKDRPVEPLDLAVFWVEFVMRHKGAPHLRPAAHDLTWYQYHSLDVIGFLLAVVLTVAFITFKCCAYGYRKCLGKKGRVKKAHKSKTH

[11] = target: UDP-glucuronosyltransferase 2B28 (Homo sapiens, UniProt Q9BY64); experiment: Substrate of human UDP-glucuronosyltransferase UGT2B28
[12] = target: T7, UDP-glucuronosyltransferase 1A6 (Homo sapiens, UniProt P19224); experiment: Substrate of human UDP-glucuronosyltransferase UGT1A6
T7 sequence (P19224 whole entry): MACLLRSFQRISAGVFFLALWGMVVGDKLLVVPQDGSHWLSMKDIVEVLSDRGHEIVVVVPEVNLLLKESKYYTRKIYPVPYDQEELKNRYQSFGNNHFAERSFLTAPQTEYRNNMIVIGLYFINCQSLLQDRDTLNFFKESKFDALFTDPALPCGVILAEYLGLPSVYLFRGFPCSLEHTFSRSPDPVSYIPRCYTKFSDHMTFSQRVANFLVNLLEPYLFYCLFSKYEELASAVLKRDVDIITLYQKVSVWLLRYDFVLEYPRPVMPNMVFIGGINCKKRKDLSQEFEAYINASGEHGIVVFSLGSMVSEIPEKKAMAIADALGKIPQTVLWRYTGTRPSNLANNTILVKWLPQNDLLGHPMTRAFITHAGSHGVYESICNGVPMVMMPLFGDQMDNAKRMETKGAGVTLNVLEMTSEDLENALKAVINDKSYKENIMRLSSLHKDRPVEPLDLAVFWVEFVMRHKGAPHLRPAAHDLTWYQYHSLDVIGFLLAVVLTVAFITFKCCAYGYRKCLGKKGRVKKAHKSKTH

[13] = target: T8, UDP-glucuronosyltransferase 1A9 (Homo sapiens, UniProt O60656); experiment: Substrate of human UDP-glucuronosyltransferase UGT1A9
T8 sequence (O60656 whole entry): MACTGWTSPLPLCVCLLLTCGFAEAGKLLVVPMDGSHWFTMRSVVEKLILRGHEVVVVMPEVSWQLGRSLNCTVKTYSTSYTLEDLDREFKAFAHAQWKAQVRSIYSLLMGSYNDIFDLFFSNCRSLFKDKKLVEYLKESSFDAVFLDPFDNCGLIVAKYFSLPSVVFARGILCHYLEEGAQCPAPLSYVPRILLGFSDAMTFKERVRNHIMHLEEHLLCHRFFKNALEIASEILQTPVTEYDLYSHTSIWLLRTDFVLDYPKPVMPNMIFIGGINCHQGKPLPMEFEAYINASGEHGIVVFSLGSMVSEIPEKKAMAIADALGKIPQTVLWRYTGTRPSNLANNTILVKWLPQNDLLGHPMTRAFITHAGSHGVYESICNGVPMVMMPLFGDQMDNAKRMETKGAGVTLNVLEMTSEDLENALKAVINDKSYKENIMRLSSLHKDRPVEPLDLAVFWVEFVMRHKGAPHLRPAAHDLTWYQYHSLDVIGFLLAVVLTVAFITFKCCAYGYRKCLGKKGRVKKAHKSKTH

[14] = target: UDP-glucuronosyltransferase 2A1 (Homo sapiens, UniProt P0DTE4); experiment: Substrate of human UDP-glucuronosyltransferase UGT2A1
[15] = target: T9, UDP-glucuronosyltransferase 2B7 (Homo sapiens, UniProt P16662); experiment: Substrate of human UDP-glucuronosyltransferase UGT2B7
T9 sequence (P16662 whole entry): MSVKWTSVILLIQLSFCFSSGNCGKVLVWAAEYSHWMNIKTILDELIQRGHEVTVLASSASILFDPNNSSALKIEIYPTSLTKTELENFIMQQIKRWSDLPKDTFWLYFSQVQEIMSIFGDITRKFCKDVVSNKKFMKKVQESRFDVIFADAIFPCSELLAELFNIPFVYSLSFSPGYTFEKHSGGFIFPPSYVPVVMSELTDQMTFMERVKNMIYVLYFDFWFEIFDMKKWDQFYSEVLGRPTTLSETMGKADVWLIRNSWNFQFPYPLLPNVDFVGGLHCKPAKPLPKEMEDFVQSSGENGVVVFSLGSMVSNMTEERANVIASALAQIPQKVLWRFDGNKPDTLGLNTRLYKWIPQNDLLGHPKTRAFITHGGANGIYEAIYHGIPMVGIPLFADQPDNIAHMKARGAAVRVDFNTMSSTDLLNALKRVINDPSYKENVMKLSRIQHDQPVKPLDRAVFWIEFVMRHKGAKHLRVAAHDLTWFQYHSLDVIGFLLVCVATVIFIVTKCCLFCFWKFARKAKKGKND

[16] = target: T10, UDP-glucuronosyltransferase 2B17 (Homo sapiens, UniProt O75795); experiment: Substrate of human UDP-glucuronosyltransferase UGT2B17
T10 sequence (O75795 whole entry): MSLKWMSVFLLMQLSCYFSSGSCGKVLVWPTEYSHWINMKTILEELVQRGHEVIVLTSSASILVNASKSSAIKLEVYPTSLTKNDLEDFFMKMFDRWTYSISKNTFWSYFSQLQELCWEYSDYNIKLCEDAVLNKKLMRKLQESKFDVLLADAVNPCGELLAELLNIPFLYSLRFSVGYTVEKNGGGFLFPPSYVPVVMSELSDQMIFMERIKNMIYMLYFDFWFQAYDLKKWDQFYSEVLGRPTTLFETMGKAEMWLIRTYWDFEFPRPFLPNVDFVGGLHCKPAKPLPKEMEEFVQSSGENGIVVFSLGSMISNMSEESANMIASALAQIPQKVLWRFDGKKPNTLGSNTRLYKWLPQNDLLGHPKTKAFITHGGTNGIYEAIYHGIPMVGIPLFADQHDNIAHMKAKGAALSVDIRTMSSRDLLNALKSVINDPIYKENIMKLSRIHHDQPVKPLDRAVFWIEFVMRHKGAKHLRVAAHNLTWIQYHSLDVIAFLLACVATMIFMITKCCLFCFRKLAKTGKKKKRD

Sulfotransferase 2B1 [17] = target: T1, Sulfotransferase 2B1; experiment: Major substrate of human cytosolic sulfotransferase SULT2B1_v1
[18] = target: T11, UDP-glucuronosyltransferase 1A8 (Homo sapiens, UniProt Q9HAW9); experiment: Substrate of human UDP-glucuronosyltransferase UGT1A8
T11 sequence (Q9HAW9 whole entry): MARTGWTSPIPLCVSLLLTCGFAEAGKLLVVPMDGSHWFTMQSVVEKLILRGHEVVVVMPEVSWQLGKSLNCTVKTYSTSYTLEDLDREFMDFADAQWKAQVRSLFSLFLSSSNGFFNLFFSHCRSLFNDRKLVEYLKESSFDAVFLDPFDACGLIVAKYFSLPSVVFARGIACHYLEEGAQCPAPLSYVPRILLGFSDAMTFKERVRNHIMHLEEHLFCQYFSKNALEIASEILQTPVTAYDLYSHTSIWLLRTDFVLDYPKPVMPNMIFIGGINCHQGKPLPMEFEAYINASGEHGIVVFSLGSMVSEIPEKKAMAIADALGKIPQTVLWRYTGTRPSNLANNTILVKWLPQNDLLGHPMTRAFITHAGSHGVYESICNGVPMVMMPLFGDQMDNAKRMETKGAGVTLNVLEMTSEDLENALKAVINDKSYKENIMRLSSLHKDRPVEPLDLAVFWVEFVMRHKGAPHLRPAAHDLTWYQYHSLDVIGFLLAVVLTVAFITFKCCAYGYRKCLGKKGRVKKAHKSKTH

Measured: Activity

UDP-glucuronosyltransferase 2A1, sequence (P0DTE4 whole entry): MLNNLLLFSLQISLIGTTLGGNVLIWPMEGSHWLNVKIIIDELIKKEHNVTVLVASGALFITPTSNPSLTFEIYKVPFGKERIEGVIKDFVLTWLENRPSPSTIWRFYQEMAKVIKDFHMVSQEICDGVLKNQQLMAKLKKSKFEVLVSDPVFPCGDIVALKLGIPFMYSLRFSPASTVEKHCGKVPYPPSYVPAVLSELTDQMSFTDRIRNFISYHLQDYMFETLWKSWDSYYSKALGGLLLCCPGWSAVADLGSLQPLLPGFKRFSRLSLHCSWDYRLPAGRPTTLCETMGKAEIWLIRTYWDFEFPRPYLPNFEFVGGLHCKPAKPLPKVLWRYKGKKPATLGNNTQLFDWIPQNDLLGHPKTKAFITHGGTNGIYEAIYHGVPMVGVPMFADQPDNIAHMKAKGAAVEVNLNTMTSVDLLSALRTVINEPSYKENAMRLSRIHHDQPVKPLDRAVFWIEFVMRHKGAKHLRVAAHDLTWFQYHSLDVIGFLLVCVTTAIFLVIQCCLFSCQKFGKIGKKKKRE
UDP-glucuronosyltransferase 2B28, sequence (Q9BY64 whole entry): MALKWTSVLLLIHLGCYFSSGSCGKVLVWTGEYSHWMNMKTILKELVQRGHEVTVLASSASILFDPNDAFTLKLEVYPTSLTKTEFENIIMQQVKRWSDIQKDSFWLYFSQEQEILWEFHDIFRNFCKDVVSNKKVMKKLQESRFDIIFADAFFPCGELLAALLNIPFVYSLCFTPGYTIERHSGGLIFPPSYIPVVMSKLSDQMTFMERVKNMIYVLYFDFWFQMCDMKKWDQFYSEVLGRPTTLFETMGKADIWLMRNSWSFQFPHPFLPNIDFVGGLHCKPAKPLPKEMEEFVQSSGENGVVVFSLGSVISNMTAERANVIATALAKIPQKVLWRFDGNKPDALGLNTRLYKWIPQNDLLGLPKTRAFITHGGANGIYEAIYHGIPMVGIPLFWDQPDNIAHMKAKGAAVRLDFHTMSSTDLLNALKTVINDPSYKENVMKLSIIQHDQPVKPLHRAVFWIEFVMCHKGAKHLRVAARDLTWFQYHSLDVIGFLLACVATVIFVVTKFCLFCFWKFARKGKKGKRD
Glutathione S-transferase omega-1, sequence (P78417 whole entry): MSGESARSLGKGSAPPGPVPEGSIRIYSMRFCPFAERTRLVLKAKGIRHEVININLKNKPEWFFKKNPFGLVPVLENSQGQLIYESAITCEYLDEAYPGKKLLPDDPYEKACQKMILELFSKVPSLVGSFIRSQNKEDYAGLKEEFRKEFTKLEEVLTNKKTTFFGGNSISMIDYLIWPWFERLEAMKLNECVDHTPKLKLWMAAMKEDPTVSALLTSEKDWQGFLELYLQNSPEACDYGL
Glutathione S-transferase Mu 4, sequence (Q03013 whole entry): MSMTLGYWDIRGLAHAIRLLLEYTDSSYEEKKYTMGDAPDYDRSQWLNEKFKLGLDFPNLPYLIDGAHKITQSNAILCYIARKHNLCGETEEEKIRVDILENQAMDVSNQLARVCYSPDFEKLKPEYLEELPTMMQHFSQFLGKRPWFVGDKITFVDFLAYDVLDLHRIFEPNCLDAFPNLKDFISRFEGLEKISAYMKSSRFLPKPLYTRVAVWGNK
Glutathione S-transferase omega-2, sequence (Q9H4Y5 whole entry): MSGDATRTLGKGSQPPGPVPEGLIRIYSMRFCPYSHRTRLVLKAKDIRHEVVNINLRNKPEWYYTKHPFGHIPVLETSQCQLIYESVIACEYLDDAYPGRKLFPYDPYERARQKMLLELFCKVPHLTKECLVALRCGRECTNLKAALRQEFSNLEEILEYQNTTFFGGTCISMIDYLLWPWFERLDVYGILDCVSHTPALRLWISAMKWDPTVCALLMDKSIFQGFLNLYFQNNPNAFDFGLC
Sulfotransferase 1A1, sequence (P50225 whole entry): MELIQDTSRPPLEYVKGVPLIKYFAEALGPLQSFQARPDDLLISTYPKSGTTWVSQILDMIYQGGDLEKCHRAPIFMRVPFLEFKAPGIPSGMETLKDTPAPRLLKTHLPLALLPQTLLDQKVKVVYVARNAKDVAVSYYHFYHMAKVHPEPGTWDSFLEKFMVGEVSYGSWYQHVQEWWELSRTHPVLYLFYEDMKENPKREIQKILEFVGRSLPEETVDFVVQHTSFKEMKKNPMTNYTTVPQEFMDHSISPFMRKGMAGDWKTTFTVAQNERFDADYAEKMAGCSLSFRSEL
Glutathione S-transferase Mu 5, sequence (P46439 whole entry): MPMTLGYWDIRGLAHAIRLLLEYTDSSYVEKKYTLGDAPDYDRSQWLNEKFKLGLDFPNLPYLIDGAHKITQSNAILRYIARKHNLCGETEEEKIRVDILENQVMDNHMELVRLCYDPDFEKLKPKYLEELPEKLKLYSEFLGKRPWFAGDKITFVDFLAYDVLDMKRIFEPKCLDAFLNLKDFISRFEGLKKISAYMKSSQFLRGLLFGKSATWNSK
Glutathione S-transferase 3, mitochondrial, sequence (O14880 whole entry): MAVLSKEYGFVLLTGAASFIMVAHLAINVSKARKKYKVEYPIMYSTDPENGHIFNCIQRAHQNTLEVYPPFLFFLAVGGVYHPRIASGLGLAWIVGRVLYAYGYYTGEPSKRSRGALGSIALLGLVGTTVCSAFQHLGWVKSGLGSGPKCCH
Microsomal glutathione S-transferase 2, sequence (Q99735 whole entry): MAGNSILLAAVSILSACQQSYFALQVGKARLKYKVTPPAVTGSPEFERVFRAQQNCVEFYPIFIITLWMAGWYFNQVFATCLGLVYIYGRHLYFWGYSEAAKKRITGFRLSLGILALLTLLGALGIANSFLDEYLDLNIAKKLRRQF

CC(C)CCC[C@@H](C)[C@H]1CC[C@H]2[C@@H]3CC=C4C[C@@H](O)CC[C@]4(C)[C@H]3CC[C@]12C [CHOLESTEROL]
Substrate: Sulfotransferase 2B1 [1]

O=C1OC(C(O)CO)C(=O)C1=O (stereo not drawn) [DEHYDROASCORBIC ACID]
Substrate: [2] | [3]

O=[N+]([O-])c1ccc(Cl)c([N+](=O)[O-])c1 [DINITROCHLOROBENZENE]
Substrate: [4] | [5] | [6] | [7] | [8] | [9]

C[C@]12CC[C@@H]3c4ccc(O)cc4CC[C@H]3[C@@H]1CC[C@@H]2O [ESTRADIOL]
Substrate: Sulfotransferase 1E1 | Sulfotransferase 2A1 | Sulfotransferase 1A1 | [10] | [11]

CC(C)Cc1ccc(C(C)C(=O)O)cc1 (stereo not drawn) [IBUPROFEN]
Substrate: [10] | [12] | [13] | [14] | [15] | [16]

C[C@]12CC[C@H](O)CC1=CC[C@@H]1[C@@H]2CC[C@]2(C)C(=O)CC[C@@H]12 [PRASTERONE]
Substrate: Sulfotransferase 1E1 | Sulfotransferase 2A1 | Sulfotransferase 2B1 [17] | Sulfotransferase 2B1 [1]

CC(=O)[C@H]1CC[C@H]2[C@@H]3CC=C4C[C@@H](O)CC[C@]4(C)[C@H]3CC[C@]12C [PREGNENOLONE]
Substrate: Sulfotransferase 1E1 | Sulfotransferase 2A1 | Sulfotransferase 2B1 [17]

C[C@]12CC[C@H]3[C@@H](CCC4=CC(=O)CC[C@@]43C)[C@@H]1CC[C@@H]2O [TESTOSTERONE]
Substrate: Sulfotransferase 2A1 | [11]

CCCC(CCC)C(=O)O [VALPROIC ACID]
Substrate: [10] | [18] | [14] | [15]
